Values joined by “and” are separate entries in the source; they are usually repeats but may differ in a detail not shown here. Equal values may be shown once. Active and inactive are the calls of the source.
Key:
[1] = molecular target: Voltage-dependent T-type calcium channel subunit alpha-1H (Homo sapiens, UniProt O95180); assay: Cav3.2 T-type channel inhibitors, cell-based, synthetic library set 1, calcium flux (AID 493022); type: functional
[2] = molecular target: T1, Alkaline phosphatase, tissue-nonspecific isozyme (Homo sapiens, UniProt P05186); assay: human TNAP enzyme inhibitors, SAR follow-up, biochemical, luminescent, dose response (AID 1056)
T1 sequence (P05186 whole entry): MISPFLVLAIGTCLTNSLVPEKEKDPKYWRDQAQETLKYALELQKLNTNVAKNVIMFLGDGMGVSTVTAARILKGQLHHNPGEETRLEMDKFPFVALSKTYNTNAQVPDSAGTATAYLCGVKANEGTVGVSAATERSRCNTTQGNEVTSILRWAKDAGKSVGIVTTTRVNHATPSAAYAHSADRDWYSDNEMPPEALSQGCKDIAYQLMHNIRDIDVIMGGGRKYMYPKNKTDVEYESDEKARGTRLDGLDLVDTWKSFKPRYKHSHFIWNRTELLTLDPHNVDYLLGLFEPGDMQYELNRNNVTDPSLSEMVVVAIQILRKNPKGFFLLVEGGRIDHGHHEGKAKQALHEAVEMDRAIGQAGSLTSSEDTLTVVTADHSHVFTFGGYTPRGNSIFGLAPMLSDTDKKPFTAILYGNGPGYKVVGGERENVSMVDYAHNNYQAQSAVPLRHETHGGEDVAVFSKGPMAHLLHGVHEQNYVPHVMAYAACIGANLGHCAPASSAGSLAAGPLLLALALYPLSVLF

[3] = molecular target: T2, Bcl-2-like protein 10 (Homo sapiens, UniProt Q9HD36); assay: displacers of TR3 peptide from Bcl-B, primary screen, selectivity assay for Bfl-1 inhibitor project, biochemical, fluorescence polarization, FITC-TR3 peptide (AID 748);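 further: fluorescence polarization from a fluorescein-labelled TR3 peptide binding purified Bcl-B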
T2 sequence (Q9HD36 whole entry): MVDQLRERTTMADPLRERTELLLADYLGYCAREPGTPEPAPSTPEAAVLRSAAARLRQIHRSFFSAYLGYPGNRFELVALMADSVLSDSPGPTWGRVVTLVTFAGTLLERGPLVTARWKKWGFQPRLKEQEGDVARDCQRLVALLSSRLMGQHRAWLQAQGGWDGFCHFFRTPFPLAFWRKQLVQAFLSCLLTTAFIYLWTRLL

[4] = molecular target: Large T antigen (Simian virus 40, UniProt P03070); type: functional, Betapolyomavirus macacae;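 further: Confirmatory-stage PubChem screen for compounds that inhibit SV40 T antigen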
[5] = molecular target: T3, Leucine aminopeptidase (Plasmodium falciparum 3D7, UniProt Q8IL11); assay: P. falciparum M17LAP inhibitors, primary screen, biochemical, fluorogenic H-Leu-NHMec substrate, 1536-well (AID 1619); type: functional
T3 sequence (Q8IL11 whole entry): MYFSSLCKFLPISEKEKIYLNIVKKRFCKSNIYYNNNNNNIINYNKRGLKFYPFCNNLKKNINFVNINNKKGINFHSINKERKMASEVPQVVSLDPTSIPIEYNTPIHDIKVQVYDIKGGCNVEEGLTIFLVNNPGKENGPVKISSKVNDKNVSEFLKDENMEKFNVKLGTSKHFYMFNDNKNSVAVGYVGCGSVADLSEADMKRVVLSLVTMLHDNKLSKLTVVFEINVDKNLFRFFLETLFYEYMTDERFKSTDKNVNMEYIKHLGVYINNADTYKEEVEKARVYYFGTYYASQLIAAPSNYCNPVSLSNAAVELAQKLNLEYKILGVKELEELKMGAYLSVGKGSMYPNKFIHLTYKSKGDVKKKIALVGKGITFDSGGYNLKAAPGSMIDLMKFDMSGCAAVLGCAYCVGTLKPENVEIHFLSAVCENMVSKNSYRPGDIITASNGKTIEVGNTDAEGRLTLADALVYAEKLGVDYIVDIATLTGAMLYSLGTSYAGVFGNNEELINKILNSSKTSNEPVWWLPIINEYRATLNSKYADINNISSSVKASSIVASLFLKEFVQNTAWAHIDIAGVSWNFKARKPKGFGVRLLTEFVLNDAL

[6] = molecular target: Alkaline phosphatase, placental type (Homo sapiens, UniProt P05187); assay: PLAP enzyme inhibitors, confirmation, biochemical, luminescence (AID 1512); type: functional
[7] = growth suppression of PTEN-null colon cells, dose response, cell-based, HCT116 PTEN knockout (AID 1047); type: functional;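 further: HCT116 colon tumor cells with PTEN knocked out; cells exposed to compound for 60 hours before readout; potency for loss of cell viability measured by luminescence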
[8] = molecular target: NACHT, LRR and PYD domains-containing protein 1 (Homo sapiens, UniProt Q9C000); assay: NALP1 inhibitors in yeast, dose response, luminescent (AID 488860); type: functional
[9] = molecular target: T4, Replicative DNA helicase DnaB (Mycobacterium tuberculosis, UniProt P9WMR3); assay: DnaB intein splicing inhibitors, dose response, biochemical, cell-free fluorescence (AID 449749); type: functional
T4 sequence (P9WMR3 whole entry): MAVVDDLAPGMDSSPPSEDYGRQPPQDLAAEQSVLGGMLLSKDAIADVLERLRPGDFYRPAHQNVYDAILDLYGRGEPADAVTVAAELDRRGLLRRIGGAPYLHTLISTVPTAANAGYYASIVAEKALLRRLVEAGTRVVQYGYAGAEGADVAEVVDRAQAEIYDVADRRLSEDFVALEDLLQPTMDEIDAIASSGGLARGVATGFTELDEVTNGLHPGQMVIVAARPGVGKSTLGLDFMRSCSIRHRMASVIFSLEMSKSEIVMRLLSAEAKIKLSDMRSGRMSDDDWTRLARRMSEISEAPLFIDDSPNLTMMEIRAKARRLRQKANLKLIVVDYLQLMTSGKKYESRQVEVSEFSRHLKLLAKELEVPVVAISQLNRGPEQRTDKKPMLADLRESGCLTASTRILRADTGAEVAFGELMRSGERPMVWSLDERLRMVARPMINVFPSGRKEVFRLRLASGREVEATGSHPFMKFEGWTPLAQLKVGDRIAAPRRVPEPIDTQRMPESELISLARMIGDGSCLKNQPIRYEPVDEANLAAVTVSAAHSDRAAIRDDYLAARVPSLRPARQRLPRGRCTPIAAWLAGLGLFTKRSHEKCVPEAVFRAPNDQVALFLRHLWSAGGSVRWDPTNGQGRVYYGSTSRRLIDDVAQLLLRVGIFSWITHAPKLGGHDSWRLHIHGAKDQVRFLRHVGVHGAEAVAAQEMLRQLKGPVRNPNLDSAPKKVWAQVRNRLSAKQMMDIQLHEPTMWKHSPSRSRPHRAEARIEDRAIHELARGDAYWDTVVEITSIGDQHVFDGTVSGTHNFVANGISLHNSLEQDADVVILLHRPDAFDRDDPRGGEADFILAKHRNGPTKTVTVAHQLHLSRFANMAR

[10] = molecular target: T5, Bifunctional protein GlmU (Mycobacterium tuberculosis, UniProt P9WMN3); assay: Inhibitors of Mycobacterial Glucosamine-1-phosphate acetyl transferase (GlmU). Secondary screen.; set-up: species or system Mycobacterium tuberculosis H37Rv
T5 sequence (P9WMN3 whole entry): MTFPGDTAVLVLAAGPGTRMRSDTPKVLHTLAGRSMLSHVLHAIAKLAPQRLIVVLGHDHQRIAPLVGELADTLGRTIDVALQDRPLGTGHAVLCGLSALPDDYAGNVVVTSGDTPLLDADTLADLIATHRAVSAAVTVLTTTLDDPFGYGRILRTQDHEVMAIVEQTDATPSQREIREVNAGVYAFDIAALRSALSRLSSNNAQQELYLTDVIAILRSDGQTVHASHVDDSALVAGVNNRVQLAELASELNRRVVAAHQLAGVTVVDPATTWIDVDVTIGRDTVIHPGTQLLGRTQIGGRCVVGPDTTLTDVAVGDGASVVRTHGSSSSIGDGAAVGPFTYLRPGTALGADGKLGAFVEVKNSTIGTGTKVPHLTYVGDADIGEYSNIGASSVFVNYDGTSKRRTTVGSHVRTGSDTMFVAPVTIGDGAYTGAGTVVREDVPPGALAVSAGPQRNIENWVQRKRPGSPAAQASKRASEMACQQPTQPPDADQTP

[11] = growth suppression of beta-catenin-knockout colon cells, dose response, cell-based, HCT116, human colon tumor (AID 1045); type: functional;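 further: HCT116 colon tumor cells with beta catenin knocked out; cells exposed to compound for 60 hours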
[12] = molecular target: T6, Heat shock factor protein 1 (Mus musculus, UniProt P38532); assay: HSF1 potentiators in luciferase reporter cells, confirmation, cell-based, NIH3T3, luminescence, dose retest (AID 435004); type: functional;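 further: stress induced by proteasome inhibitor MG132 added 30 min after compound; luciferase reporter driven by HSF1 response element in NIH3T3 cells; actives raise luminescence as potentiators of the MG132 stress response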
T6 sequence (P38532 whole entry): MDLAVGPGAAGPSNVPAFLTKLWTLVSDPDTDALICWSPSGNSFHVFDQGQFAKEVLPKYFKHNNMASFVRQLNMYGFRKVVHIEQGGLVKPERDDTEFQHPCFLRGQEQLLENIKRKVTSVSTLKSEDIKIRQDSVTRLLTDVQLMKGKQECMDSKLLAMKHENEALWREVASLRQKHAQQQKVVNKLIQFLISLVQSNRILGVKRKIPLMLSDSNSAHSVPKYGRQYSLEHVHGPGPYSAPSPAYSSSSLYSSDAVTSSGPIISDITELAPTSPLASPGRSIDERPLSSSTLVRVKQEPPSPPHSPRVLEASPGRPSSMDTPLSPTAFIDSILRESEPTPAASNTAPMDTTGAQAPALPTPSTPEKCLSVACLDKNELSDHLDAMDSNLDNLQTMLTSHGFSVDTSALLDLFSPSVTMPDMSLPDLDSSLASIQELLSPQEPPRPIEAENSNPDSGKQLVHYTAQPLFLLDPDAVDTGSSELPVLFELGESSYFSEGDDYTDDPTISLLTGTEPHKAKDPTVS

[13] = molecular target: T7, Protein RecA (Mycobacterium tuberculosis, UniProt P9WHJ3); assay: Fluorescence Cell-Free Homogeneous Dose Retest to Identify Inhibitors of RecA-Intein Splicing Activity. [Related pubchem assays (depositor defined):AID2097, AID2223, AID489010, AID492950]; type: functional
T7 sequence (P9WHJ3 whole entry): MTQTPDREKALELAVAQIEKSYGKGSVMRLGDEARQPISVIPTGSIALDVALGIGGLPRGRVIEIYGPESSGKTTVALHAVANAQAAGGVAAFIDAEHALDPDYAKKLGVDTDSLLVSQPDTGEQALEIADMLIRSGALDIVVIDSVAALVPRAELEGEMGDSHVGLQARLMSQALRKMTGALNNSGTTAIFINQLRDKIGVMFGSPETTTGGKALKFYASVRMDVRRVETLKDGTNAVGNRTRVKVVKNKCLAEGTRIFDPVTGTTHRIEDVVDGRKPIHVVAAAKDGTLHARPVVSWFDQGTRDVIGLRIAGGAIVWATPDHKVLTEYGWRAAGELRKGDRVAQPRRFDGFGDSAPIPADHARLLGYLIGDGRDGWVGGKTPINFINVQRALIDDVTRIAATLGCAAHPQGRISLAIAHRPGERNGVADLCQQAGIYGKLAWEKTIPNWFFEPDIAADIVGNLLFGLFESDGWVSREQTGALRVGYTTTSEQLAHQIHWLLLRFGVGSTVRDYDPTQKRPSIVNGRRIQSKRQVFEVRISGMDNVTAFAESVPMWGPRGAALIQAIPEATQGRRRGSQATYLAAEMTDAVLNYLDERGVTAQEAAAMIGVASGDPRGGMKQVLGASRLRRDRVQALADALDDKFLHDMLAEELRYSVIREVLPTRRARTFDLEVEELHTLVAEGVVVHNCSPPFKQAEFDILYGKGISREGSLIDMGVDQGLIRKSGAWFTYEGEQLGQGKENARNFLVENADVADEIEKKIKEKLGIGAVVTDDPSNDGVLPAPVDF

[14] = system: Saccharomyces cerevisiae; assay: NALP1 inhibitor project selectivity study, Caspase-1/ASC signal blockade IC50 in S. cerevisiae (AID 488863); type: functional, organism-based

Chain of Alkaline phosphatase, placental type (P05187 whole entry): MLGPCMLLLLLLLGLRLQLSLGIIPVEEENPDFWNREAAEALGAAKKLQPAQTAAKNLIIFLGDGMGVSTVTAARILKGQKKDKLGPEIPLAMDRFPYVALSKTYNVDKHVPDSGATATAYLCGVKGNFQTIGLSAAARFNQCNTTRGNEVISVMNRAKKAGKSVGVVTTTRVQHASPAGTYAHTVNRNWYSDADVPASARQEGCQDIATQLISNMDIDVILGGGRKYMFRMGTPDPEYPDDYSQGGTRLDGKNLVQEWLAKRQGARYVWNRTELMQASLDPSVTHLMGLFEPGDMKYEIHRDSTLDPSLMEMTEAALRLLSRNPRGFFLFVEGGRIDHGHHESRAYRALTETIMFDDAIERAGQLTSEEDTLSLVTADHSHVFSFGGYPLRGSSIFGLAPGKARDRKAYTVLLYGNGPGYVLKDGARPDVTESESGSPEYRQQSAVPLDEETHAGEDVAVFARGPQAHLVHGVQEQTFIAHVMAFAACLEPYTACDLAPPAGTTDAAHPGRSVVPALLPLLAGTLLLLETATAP
Chain of Large T antigen (P03070 whole entry): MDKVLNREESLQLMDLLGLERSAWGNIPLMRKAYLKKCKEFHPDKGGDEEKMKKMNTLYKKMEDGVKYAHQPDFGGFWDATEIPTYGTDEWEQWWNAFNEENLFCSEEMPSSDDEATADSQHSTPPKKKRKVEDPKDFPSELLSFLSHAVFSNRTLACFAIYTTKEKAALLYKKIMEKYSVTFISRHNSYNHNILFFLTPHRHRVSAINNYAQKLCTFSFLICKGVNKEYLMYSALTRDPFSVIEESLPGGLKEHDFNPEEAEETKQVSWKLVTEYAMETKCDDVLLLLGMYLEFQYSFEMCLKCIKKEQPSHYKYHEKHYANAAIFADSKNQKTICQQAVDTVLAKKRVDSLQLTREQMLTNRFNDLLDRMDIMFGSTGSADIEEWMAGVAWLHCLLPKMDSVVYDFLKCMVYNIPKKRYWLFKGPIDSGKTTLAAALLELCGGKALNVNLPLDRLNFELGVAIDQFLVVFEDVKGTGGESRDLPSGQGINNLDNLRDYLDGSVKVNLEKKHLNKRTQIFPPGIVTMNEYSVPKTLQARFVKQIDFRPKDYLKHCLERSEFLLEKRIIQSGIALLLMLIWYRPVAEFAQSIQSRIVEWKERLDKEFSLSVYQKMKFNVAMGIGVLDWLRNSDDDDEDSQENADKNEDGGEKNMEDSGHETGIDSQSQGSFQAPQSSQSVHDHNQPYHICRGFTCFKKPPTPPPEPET
Chain of NACHT, LRR and PYD domains-containing protein 1 (Q9C000 1-1212 limits assumed): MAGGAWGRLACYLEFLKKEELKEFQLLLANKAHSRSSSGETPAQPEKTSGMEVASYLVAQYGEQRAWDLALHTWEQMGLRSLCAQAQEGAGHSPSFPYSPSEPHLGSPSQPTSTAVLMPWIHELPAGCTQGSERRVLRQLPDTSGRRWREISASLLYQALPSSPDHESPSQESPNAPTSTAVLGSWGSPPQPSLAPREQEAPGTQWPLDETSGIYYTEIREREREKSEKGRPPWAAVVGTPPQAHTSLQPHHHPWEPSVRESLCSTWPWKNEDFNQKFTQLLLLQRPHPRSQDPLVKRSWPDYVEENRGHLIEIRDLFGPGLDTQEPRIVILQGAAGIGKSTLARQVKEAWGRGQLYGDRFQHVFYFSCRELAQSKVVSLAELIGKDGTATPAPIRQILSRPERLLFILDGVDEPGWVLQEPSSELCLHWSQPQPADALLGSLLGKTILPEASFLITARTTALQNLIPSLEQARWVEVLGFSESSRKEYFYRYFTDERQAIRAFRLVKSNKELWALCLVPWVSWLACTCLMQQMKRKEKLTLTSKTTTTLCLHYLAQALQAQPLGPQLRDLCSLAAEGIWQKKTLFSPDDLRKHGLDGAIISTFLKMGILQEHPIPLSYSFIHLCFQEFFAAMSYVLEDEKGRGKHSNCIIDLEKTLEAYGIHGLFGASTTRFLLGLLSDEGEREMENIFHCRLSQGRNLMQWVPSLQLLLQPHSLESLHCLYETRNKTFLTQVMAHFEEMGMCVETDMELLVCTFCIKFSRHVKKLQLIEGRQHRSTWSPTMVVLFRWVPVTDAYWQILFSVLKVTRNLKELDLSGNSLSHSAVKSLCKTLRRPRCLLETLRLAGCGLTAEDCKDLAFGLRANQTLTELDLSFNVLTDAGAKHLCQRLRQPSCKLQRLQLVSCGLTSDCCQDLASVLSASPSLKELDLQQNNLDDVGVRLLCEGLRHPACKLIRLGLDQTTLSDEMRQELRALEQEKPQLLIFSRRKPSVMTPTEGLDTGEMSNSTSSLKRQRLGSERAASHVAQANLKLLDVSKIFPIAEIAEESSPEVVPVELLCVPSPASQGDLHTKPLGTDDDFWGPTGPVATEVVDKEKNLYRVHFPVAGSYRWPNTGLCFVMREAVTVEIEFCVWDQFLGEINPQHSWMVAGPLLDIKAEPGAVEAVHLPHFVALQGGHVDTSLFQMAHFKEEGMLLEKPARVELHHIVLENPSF
Chain of NACHT, LRR and PYD domains-containing protein 1 (Q9C000 1213-1473 limits assumed): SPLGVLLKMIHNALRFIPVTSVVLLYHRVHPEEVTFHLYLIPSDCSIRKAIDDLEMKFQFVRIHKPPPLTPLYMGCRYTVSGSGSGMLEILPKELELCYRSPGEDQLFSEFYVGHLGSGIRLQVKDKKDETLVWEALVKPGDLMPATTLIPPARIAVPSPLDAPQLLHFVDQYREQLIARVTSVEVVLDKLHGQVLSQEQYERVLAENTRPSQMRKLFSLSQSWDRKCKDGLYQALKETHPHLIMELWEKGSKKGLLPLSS
Chain of Voltage-dependent T-type calcium channel subunit alpha-1H (O95180 whole entry): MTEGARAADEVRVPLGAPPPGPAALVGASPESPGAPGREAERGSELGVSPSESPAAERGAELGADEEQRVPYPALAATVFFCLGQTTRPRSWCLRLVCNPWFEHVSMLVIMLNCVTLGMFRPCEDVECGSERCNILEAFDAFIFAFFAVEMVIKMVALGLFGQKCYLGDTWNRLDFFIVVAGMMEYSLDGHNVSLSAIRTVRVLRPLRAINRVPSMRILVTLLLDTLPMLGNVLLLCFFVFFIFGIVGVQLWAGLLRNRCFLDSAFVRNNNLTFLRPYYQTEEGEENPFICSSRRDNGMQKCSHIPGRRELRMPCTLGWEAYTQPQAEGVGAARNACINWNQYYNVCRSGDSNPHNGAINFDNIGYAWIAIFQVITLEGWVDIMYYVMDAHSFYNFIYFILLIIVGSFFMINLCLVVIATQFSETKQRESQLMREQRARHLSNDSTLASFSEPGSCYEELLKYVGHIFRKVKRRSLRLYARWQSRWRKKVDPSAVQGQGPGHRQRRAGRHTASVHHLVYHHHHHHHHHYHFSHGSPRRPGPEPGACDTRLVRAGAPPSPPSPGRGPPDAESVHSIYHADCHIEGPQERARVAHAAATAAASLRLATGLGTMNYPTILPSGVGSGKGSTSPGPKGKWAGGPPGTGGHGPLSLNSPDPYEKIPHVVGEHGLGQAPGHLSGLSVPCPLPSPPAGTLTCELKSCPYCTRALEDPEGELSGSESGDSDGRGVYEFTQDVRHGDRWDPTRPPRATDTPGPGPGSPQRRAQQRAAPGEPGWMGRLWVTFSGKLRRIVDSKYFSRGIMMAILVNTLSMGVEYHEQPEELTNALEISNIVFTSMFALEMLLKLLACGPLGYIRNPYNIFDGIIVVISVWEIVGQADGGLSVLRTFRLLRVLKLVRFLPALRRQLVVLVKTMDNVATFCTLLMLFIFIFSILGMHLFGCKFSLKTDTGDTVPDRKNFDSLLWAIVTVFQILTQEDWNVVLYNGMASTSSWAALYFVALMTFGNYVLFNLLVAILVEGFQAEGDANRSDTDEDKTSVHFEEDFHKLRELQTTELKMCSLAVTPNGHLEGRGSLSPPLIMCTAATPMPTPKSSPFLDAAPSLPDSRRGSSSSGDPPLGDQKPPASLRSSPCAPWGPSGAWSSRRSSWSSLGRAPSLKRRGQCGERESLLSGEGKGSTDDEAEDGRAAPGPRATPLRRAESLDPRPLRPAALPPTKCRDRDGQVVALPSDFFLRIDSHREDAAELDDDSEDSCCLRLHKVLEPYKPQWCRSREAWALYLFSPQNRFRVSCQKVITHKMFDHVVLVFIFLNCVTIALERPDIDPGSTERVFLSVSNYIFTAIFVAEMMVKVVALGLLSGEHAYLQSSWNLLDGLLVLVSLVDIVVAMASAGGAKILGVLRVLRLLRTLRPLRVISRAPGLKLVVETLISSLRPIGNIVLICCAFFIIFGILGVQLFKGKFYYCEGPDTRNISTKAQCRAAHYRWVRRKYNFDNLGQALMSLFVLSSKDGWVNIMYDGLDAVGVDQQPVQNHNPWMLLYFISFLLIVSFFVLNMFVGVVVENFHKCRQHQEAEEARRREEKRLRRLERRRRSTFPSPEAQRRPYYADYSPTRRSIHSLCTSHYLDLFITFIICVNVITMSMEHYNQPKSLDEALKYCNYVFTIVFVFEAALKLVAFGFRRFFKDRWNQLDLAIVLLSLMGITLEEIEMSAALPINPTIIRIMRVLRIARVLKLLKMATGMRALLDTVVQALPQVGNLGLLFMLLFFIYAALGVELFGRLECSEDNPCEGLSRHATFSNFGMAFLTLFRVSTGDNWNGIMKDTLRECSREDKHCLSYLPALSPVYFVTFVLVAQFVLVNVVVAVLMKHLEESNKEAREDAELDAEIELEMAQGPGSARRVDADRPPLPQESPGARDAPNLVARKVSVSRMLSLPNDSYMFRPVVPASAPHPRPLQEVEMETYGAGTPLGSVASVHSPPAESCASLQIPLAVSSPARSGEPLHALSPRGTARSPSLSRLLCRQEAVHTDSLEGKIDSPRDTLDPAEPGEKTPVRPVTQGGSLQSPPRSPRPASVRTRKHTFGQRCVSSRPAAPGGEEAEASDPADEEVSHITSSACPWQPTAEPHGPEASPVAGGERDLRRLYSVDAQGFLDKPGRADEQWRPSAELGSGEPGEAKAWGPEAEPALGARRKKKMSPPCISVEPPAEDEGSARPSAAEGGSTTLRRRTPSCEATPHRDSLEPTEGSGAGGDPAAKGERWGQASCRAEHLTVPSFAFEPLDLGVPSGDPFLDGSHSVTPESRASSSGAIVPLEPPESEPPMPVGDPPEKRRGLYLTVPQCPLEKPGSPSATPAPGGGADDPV

## O=C(COc1ccc(F)c(Cl)c1)Nc1nnc(-c2ccc(F)cc2)o1
[1]
  EC50: 1.7 µM (active)

## C=CCn1c(SCC(=O)c2ccc(O)c(O)c2)nnc1-c1ccccc1OC
[2]
  IC50: > 100 µM (inactive) and 44.8 µM (active)
[3]
  IC50: > 100 µM (inactive)
[4]
  IC50: 14.7 µM (active)
[5]
  IC50: 22.8 µM (active)
[6]
  IC50: 2.6 µM (active) and 2.79 µM (active)

## Cn1cnc([N+](=O)[O-])c1S(=O)(=O)c1ccc(Cl)cc1
[7]
  EC50: 6.79 µM (active)
[8]
  IC50: 17.7 µM (active)
[9]
  AC50: 19.5 µM (active)
[10]
  IC50: 101 µM (active)
[11]
  EC50: 5.88 µM (active)
[12]
  EC50: 17.8 µM (active)
[13]
  EC50: 8.29 µM (active)
[14]
  IC50: 19.8 µM (active)

Reference: ChEMBL document CHEMBL1201862, “PubChem BioAssay data set” (2004)
